US8628931B2, “mTOR pathway theranostic” (George Mason Intellectual Properties, Inc., priority 2005, dated 2014)

What was measured:
Format in all cases: in vivo, mouse
[1] = test system: mTOR downstream targets 4EBP1 and S6; assay: Western blotting for S6 and 4EBP1 phosphorylation, RD xenograft tumors or uninvolved muscle
Experimental: (§1) (FIG. 6A) Time dependent CCI-779 inhibition of phosphorylation of mTOR pathway downstream substrates within tumor tissue in a xenograft treatment model. […] (FIG. 6B) CCI-779 inhibited tumor growth in Rh30 and RD mouse xenograft models. 2×10^6 cells in 0.2 mL total volume per mouse, from either Rh30 alveolar or RD embryonal cell lines, were injected orthotopically into the left hind leg gastrocnemius muscle of a SCID beige murine model. After 1 week, mice were assigned to control (n=8) or CCI-779 treatment groups (n=8). Tumor volume, as measured with calipers, was less in the CCI-779 treatment group as compared to the vehicle alone for both the Rh30 and RD xenografts --▴-- RD control, -▪- Rh30 plus CCI-779, -- ♦-- Rh30 control --X- RD plus CCI-779, (RD p=0.00008; Rh30 p=0.0002, Student's t-test). (FIG. 6C) CCI-779 was administered at 20 mg/kg/IP every 3 days for 30 days. Protein extracts from Rh30 and RD mouse xenograft tumors or uninvolved muscle were treated with CCI-779 or vehicle for 30 days and analyzed by Western blotting for S6 and 4EBP1 phosphorylation.
(§2) 5. In vivo xenograft tumor model. […] Tumor growth was measured every 3 days with calipers, and tumor volume was calculated by the formula V (mm^3)=a×b^2, where a is the longest tumor axis, and b is the shortest tumor axis. […]

[2] = test system: Rh30 alveolar rhabdomyosarcoma xenograft; assay: CCI-779 suppression of Rh30 rhabdomyosarcoma xenograft tumor growth; details: Rh30 orthotopic xenograft, SCID beige mice, 20 mg/kg IP every 3 days for 30 days, calipers
Experimental: as §1, §2

[3] = test system: mTOR pathway substrates pS6 Ser235/236 and 4EBP1 Thr70; assay: Time dependent inhibition of phosphorylation of mTOR pathway downstream substrates in xenograft treatment model (FIG. 6A); details: non-involved muscle and tumor tissue, compared to actin
Experimental: as §1, §2

[4] = test system: mTOR downstream targets 4EBP1 and S6; assay: Western blotting for S6 and 4EBP1 phosphorylation, Rh30 xenograft tumors or uninvolved muscle
Experimental: as §1, §2

[5] = test system: RD embryonal rhabdomyosarcoma xenograft; assay: CCI-779 suppression of RD rhabdomyosarcoma xenograft tumor growth; details: RD orthotopic xenograft, SCID beige mice, 20 mg/kg IP every 3 days for 30 days, calipers
Experimental: as §1, §2

Structure (SMILES): CO[C@H]1C[C@@H]2CC[C@@H](C)[C@@](O)(O2)C(=O)C(=O)N2CCCC[C@H]2C(=O)O[C@H]([C@H](C)C[C@@H]2CC[C@@H](OC(=O)C(C)(CO)CO)[C@H](OC)C2)CC(=O)[C@H](C)/C=C(\C)[C@@H](O)[C@@H](OC)C(=O)[C@H](C)C[C@H](C)/C=C/C=C/C=C/1C [CCI-779, 40-[3-hydroxy(hydroxymethyl)methylpropanoate]-rapamycin]
- Phosphorylation of mTOR downstream targets (4EBP1 and S6) ([1]; RD embryonal xenograft derived tumors): inhibited the expected phosphorylation
- Phosphorylation of 4EBP1 ([1]; RD muscle and tumor cells, 20 mg/kg IP every 3 days for 30 days, Western blot): suppresses phosphorylation
- Tumor volume / tumor growth compared to vehicle alone [2]: less and profoundly reduced the growth
- Phosphorylation of 4EBP1 Thr70 [3]: inhibited phosphorylation
- Phosphorylation of pS6 Ser235/236 [3]: inhibited phosphorylation
- Phosphorylation of mTOR downstream targets (4EBP1 and S6) ([4]; Rh30 alveolar xenograft derived tumors): inhibited the expected phosphorylation
- Phosphorylation of 4EBP1 ([4]; Rh30 muscle and tumor cells, 20 mg/kg IP every 3 days for 30 days, Western blot): suppresses phosphorylation
- Tumor volume / tumor growth compared to vehicle alone [5]: less and profoundly reduced the growth
